Assay type in all cases: cell-based
One experiment concerns SR (NPM-ALK) cells. The experiment in a line: Growth inhibition IC50 in ALCL SR cells (CCK8/WST, 72 hours). As to conditions: 72 h, SR cells, WST; Brigatinib-based PROTAD molecules (Table 3).
The subject of experiment [1] is NCI-H2228 (EML4-ALK, V3) cells. Briefly: Growth inhibition IC50 in lung adenocarcinoma H2228 cells (WST). The note with it: Homo sapiens, WST (Table 3). An excerpt: Experiments were repeated at least three times.
Besides above, we also tested the dosage-dependent effects on the growth inhibition in H2228 cells. […] (Table 3).

A further experiment has as its target T1, Ba/F3 (EML4-ALK/WT) (Homo sapiens, UniProt Q9UM73).
T1 construct: Q9HC35 (Echinoderm microtubule-associated protein-like 4)
Briefly: Growth inhibition IC50 in Ba/F3 cells expressing EML4-ALK wild type.

Another experiment has as its target T2, Ba/F3 (EML4-ALK/L1196M) (Homo sapiens, UniProt Q9UM73, L1196M, cells depend on it).
T2 construct: Q9HC35 (Echinoderm microtubule-associated protein-like 4)
Briefly: Growth inhibition IC50 in Ba/F3 cells expressing EML4-ALK L1196M.

For the next experiment, the target named is T3, Ba/F3 (EML4-ALK/C1156Y) (Homo sapiens, UniProt Q9UM73, C1156Y, cells depend on it).
T3 construct: Q9HC35 (Echinoderm microtubule-associated protein-like 4)
The experiment in a line: Growth inhibition IC50 in Ba/F3 cells expressing EML4-ALK C1156Y.

Experiment [2] relates to PC9 (EGFR, exon 19 del) cells. The experiment in a line: Growth inhibition IC50 in EGFR mutant lung adenocarcinoma PC9 cells. The note with it: Homo sapiens, PC-9; PC9 cells, CTB, n ≥ 3; read-out: Half Inhibitory Concentration (IC50) Mean.
Experimental: (§3) SR (NPM-ALK) and NCI-H2228 (EML4-ALK, V3) cells were purchased from ATCC. […] All Cells were cultured in RPMI1640 medium with 10% FBS and Penicillin-Streptomycin in 37° C. incubator with 5% CO2.
(§4) Cells were seeded at specific density in 96 well plates one day before treatment. […] Viable cells were measured via CCK8 reagent and IC50s were calculated via Prism Graphad. Experiments were repeated at least three times.
The test system of experiment [3] is PC9Brc1 (EGFR, exon 19 del+T790M) cells. Briefly: Growth inhibition IC50 in EGFR mutant lung cancer PC9Brc1 cells. The note with it: CTB, n ≥ 3, read-out: Half Inhibitory Concentration (IC50) Mean.
Experimental: as §3, §4
The test system of experiment [4] is SW48 cell line (EGFR G719S). Briefly: Growth inhibition IC50 in EGFR G719S colorectal cancer cell line SW48. As to conditions: Homo sapiens, CTG, n = 2, read-out: Half Inhibitory Concentration (IC50) Mean.
Experimental: as §4
Experiment [5] concerns U118MG cells (FIG-ROS1 gene fusion). Briefly: Growth inhibition IC50 in ROS1 mutant glioblastoma cell line U118MG (72 hours). As to conditions: Homo sapiens, U-118-MG, U118MG cells, 72 hours.
For a further experiment, the system named is MOLM13 cells (FLT3-ITD). The experiment in a line: Growth inhibition IC50 in FLT3-ITD AML cell line MOLM13. As to conditions: Homo sapiens, MOLM-13; MOLM13 cells, n = 2, reagent CTG; read-out: Half Inhibitory Concentration (IC50) Mean.
Experiment [6] concerns the target T4, ALK protein in SR (NPM-ALK) cells (Homo sapiens, UniProt Q9UM73).
T4 construct: NPM (nucleophosmin, NPM1, P06748) fusion partner; host or cells: SR (ALCL) cells; the other entry of the earlier key: NPM1 (P06748, Nucleophosmin)
The experiment in a line: Western blot of ALK protein level (degradation, DC50), ALK phosphorylation and downstream signaling in SR cells. For orientation: In western blotting, separated proteins are transferred to a membrane and probed.
Experimental: Cancer cells were seeded in 1 ml RPMI1640 medium in 24-well plate at the density of 3×10^5 or 1.5×10^5 cells/ml. […] Then cells were washed twice with PBS and lyzed in RIPA lysis buffer with Halt Proteinase and Phosphotase inhibitor. Equal amount of proteins were loaded to run SDS-PAGE gels after denature. The gels were blotted to PVDF membrane. After incubating with first and secondary antibodies, the images were developed using SuperSignal West Pico Chemiluminescent Substrate.
DC50 (concentration required to degrade protein by half) were calculated based on the intensity from western blot, and data were analyzed via Prism GraphPad with non-linear regression.

Another experiment concerns the target T5, ALK protein in SR cells (Homo sapiens, UniProt Q9UM73).
T5 construct: NPM (nucleophosmin, NPM1, P06748) fusion partner; host or cells: SR (ALCL) cells; the other entry of the earlier key: NPM1 (P06748, Nucleophosmin)
Briefly: Block of ALK degradation by proteosome inhibitors MG132 and MLN4924 in SR cells. An excerpt:
To further validate the degradation effect act through proteosome mediated pathway, we also treated cells with two different proteosome inhibitors MG132 and MLN4924 to block protein degradation (FIG. 16).

Another experiment concerns H2228 cells (EML4-ALK). Briefly: Colony formation assay in H2228 cells. The note with it: about 2 weeks. The method, then: (§1) Cell were digested to become single cell suspension. Cells were seeded in the intensity of 250 cells/well in 12 well plate. Treated cells at the concentration of 100, 250, 500 nM. Fixed cells 2-3 weeks after and stained cells with crystyl violate.
In order to see the effect of ALK PROTAD compounds on the colony formation ability of cancer cells, EML4-ALK mutant lung cancer cells H2228 were firstly seeded in 12 well plate at the density of 200 cells per well. Cells were treated with different ALK PROTAD compounds at different concentration for about 2 weeks.

For the next experiment, the system named is PC9 cells. The experiment in a line: Colony formation assay in PC9 cells. The method, then:
as §1
(§2) ALK PROTAD compound SIAIS1210117 and its negative control epimer SIAIS219050 were used.

The next experiment deals with PC9Brc1 cells. The experiment in a line: Colony formation assay in PC9Brc1 cells. The note with it: PC9 Brc1 cells. The method, then:
as §1, §2

Where two headings read alike, the source gives them in different places.

Experimental for Ba/F3 (EML4-ALK/C1156Y): as §4
Experimental for Ba/F3 (EML4-ALK/L1196M): as §4
Experimental for Ba/F3 (EML4-ALK/WT): as §4
Experimental for MOLM13 cells (FLT3-ITD): as §4

The GI50 is the concentration that inhibits growth by half. What is called DC50 is the concentration at which degradation of the target reaches its halfway point. As for `COc1cc(N2CCC(NC(=O)CCCCCCCCCC(=O)N[C@H](C(=O)N3C[C@H](O)C[C@H]3C(=O)NCc3ccc(-c4scnc4C)cc3)C(C)(C)C)CC2)ccc1Nc1ncc(Cl)c(Nc2ccccc2P(C)(C)=O)n1` [SIAIS1210117, N1-(1-(4-((5-chloro-4-((2-(dimethylphosphoryl)phenyl)amino)pyrimidin-2-yl)amino)-3-methoxyphenyl)piperidin-4-yl)-N11-((S)-1-((2S,4R)-4-hydroxy-2-((4-(4-methylthiazol-5-yl)benzyl)carbamoyl)pyrrolidin-1-yl)-3,3-dimethyl-1-oxobutan-2-yl)undecanediamide], the IC50 came out at 1.7 ± 1 nM in the experiment with SR (NPM-ALK) cells; 30.3 nM in [1]; 106 nM in [2]; 460 nM in experiment [3]; 1360 nM in experiment [4]; 920 nM in experiment [5] (n = 2, reagent CTG, read-out: Half Inhibitory Concentration (IC50) Mean). Besides, the IC50 in experiment [5] (read-out: IC50) was roughly 920 nM; with MOLM13 cells (FLT3-ITD), 345 nM. In addition, the GI50 on Ba/F3 (EML4-ALK/WT) was determined as 123 nM; on Ba/F3 (EML4-ALK/L1196M), 170 nM; at Ba/F3 (EML4-ALK/C1156Y), 120 nM. The compound also displayed a DC50 in experiment [6] (ALK protein degradation in SR cells) of 0.5 to 10 nM. For the same compound, in experiment [6] (SR cells, 100 nM, 4 hours (SIAIS1210117), up to 24 hours (epimer)), the “ALK protein degradation within a time course” value is listed as “significant ALK protein degradation”. Further, the “reduction of ALK protein level and its block by MG132 and MLN4924” value at ALK protein in SR cells is reported as “able to be blocked”. In addition, the colony formation entry in the experiment on H2228 cells (EML4-ALK) is listed as “dramatically inhibited”; with PC9 cells, “able to inhibit”; in the experiment on PC9Brc1 cells, “able to inhibit”.
